Patent publication US20240383874A1, “BENZENE RING DERIVATIVE, AND COMPOSITION AND PHARMACEUTICAL USE THEREOF” (Xizang Haisco Pharmaceutical Co., Ltd., priority 2020, published 2024)
Where a name gives a salt, the structure may show the parent alone.

Tested on: 22RV1 cells
Experiment: Experiment 2 on inhibiting 22RV1 cell proliferation (7 days, CellTiter-Glo)
Format: cell-based
Settings: Homo sapiens, 22Rv1, 168 h, 1% css-FBS phenol red-free medium, incubated with compound 7 days, read-out: IC50 values on proliferation inhibition of 22RV1 cells
In short: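 22RV1 cells plated at 2000/well in phenol red-free medium with 1% css-FBS and treated next day with compound for 7 days at 37 °C. Viability read by CellTiter-Glo luminescence relative to DMSO vehicle; IC50 from dose-response fit.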

SMILES	IC50
CC(C)(c1ccc(OCc2ccnc(N3CCC(CN4CCC5(CC4)CCN(c4ccc6c(c4)C(=O)N(C4CCC(=O)NC4=O)C6=O)CC5)CC3)n2)cc1)c1cc(Cl)cc(C#N)c1 (stereo not drawn) [Compound 77 trifluoroacetate, 3-chloro-5-(2-(4-((2-(4-((9-(2-(2,6-dioxopiperidin-3-yl)-1,3-dioxoisoindolin-5-yl)-3,9-diazaspiro[5.5]undecan-3-yl)methyl)piperidin-1-yl)pyrimidin-4-yl)methoxy)phenyl)propan-2-yl)benzonitrile]	192 nM
CC(C)(c1ccc(OCc2ccnc(N3CC4CN(C5CCN(C6CN(c7ccc8c(c7)C(=O)N(C7CCC(=O)NC7=O)C8=O)C6)CC5)CC4C3)n2)cc1)c1cc(Cl)cc(C#N)c1 (stereo not drawn) [Compound 81 trifluoroacetate, 3-chloro-5-(2-(4-((2-(5-(1-(1-(2-(2,6-dioxopiperidin-3-yl)-1,3-dioxoisoindolin-5-yl)azetidin-3-yl)piperidin-4-yl)hexahydropyrrolo[3,4-c]pyrrol-2(1H)-yl)pyrimidin-4-yl)methoxy)phenyl)propan-2-yl)benzonitrile]	484 nM
CC(C)(c1ccc(OCc2ccnc(N3CC4CN(C5CCN(CC6CCN(c7ccc8c(c7)C(=O)N(C7CCC(=O)NC7=O)C8=O)CC6)CC5)CC4C3)n2)cc1)c1cc(Cl)cc(C#N)c1 (stereo not drawn) [Compound 82 trifluoroacetate, 3-chloro-5-(2-(4-((2-(5-(1-((1-(2-(2,6-dioxopiperidin-3-yl)-1,3-dioxoisoindolin-5-yl)piperidin-4-yl)methyl)piperidin-4-yl)hexahydropyrrolo[3,4-c]pyrrol-2(1H)-yl)pyrimidin-4-yl)methoxy)phenyl)propan-2-yl)benzonitrile]	413 nM
Cn1c(=O)n(C2CCC(=O)NC2=O)c2cccc(N3CCC(C4CCN(CC5CCN(c6nccc(COc7ccc(C(C)(C)c8cc(Cl)cc(C#N)c8)cc7)n6)CC5)CC4)CC3)c21 (stereo not drawn) [Compound 85 trifluoroacetate, 3-chloro-5-(2-(4-((2-(4-((1′-(1-(2,6-dioxopiperidin-3-yl)-3-methyl-2-oxo-2,3-dihydro-1H-benzo[d]imidazol-4-yl)-[4,4′-bipiperidin]-1-yl)methyl)piperidin-1-yl)pyrimidin-4-yl)methoxy)phenyl)propan-2-yl)benzonitrile]	316 nM
CC(C)(c1ccc(OCc2ccnc(N3CCC(CN4CCC5(CC4)CCN(c4ccc6c(c4)C(=O)N(C4CCC(=O)NC4=O)C6=O)CC5)C3)n2)cc1)c1cc(Cl)cc(C#N)c1 (stereo not drawn) [Compound 86 trifluoroacetate, 3-chloro-5-(2-(4-((2-(3-((9-(2-(2,6-dioxopiperidin-3-yl)-1,3-dioxoisoindolin-5-yl)-3,9-diazaspiro[5.5]undecan-3-yl)methyl)pyrrolidin-1-yl)pyrimidin-4-yl)methoxy)phenyl)propan-2-yl)benzonitrile]	278 nM
CC(C)(c1ccc(OCc2ccnc(N3CC(CN4CCC5(CC4)CCN(c4ccc6c(c4)C(=O)N(C4CCC(=O)NC4=O)C6=O)CC5)C3)n2)cc1)c1cc(Cl)cc(C#N)c1 (stereo not drawn) [Compound 87 trifluoroacetate, 3-chloro-5-(2-(4-((2-(3-((9-(2-(2,6-dioxopiperidin-3-yl)-1,3-dioxoisoindolin-5-yl)-3,9-diazaspiro[5.5]undecan-3-yl)methyl)azetidin-1-yl)pyrimidin-4-yl)methoxy)phenyl)propan-2-yl)benzonitrile]	303 nM
Cn1c(=O)n(C2CCC(=O)NC2=O)c2ccc(C3CCN(C4CCN(CC5(F)CCN(c6nccc(COc7ccc(C(C)(C)c8cc(Cl)cc(C#N)c8)cc7)n6)CC5)CC4)CC3)cc21 (stereo not drawn) [Compound 90 trifluoroacetate, 3-chloro-5-(2-(4-((2-(4-((4-(1-(2,6-dioxopiperidin-3-yl)-3-methyl-2-oxo-2,3-dihydro-1H-benzo[d]imidazol-5-yl)-[1,4′-bipiperidin]-1′-yl)methyl)-4-fluoropiperidin-1-yl)pyrimidin-4-yl)methoxy)phenyl)propan-2-yl)benzonitrile]	627 nM
Cn1c(=O)n(C2CCC(=O)NC2=O)c2ccc(C3CCN(CC4CCN(C5CCN(c6nccc(COc7ccc(C(C)(C)c8cc(Cl)cc(C#N)c8)cc7)n6)CC5)CC4)CC3)cc21 (stereo not drawn) [Compound 91 trifluoroacetate, 3-chloro-5-(2-(4-((2-(4-((4-(1-(2,6-dioxopiperidin-3-yl)-3-methyl-2-oxo-2,3-dihydro-1H-benzo[d]imidazol-5-yl)piperidin-1-yl)methyl)-[1,4′-bipiperidin]-1′-yl)pyrimidin-4-yl)methoxy)phenyl)propan-2-yl)benzonitrile]	427 nM
COc1c(Cl)cc(C(C)(C)c2ccc(OCc3ccnc(N4CCC(CN5CCC(c6ccc7c(c6)n(C)c(=O)n7C6CCC(=O)NC6=O)CC5)CC4)n3)cc2)cc1C#N (stereo not drawn) [Compound 92 trifluoroacetate, 3-chloro-5-(2-(4-((2-(4-((4-(1-(2,6-dioxopiperidin-3-yl)-3-methyl-2-oxo-2,3-dihydro-1H-benzo[d]imidazol-5-yl)piperidin-1-yl)methyl)piperidin-1-yl)pyrimidin-4-yl)methoxy)phenyl)propan-2-yl)-2-methoxybenzonitrile]	900 nM
COc1c(Cl)cc(C(C)(C)c2ccc(OCc3ccnc(N4CCC5(CCC(CN6CCC(c7ccc8c(c7)n(C)c(=O)n8C7CCC(=O)NC7=O)CC6)CC5)CC4)n3)cc2)cc1C#N (stereo not drawn) [Compound 93 trifluoroacetate, 3-chloro-5-(2-(4-((2-(9-((4-(1-(2,6-dioxopiperidin-3-yl)-3-methyl-2-oxo-2,3-dihydro-1H-benzo[d]imidazol-5-yl)piperidin-1-yl)methyl)-3-azaspiro[5.5]undecan-3-yl)pyrimidin-4-yl)methoxy)phenyl)propan-2-yl)-2-methoxybenzonitrile]	554 nM
Cn1c(=O)n(C2CCC(=O)NC2=O)c2cccc(CN3CCC(N4CCC5(CCN(c6nccc(COc7ccc(C(C)(C)c8cc(Cl)cc(C#N)c8)cc7)n6)CC5)CC4)CC3)c21 (stereo not drawn) [Compound 100 trifluoroacetate, 3-chloro-5-(2-(4-((2-(9-(1-((1-(2,6-dioxopiperidin-3-yl)-3-methyl-2-oxo-2,3-dihydro-1H-benzo[d]imidazol-4-yl)methyl)piperidin-4-yl)-3,9-diazaspiro[5.5]undecan-3-yl)pyrimidin-4-yl)methoxy)phenyl)propan-2-yl)benzonitrile]	577 nM
Cn1c(=O)n(C2CCC(=O)NC2=O)c2cccc(CN3CCC4(CC3)CC(N3CCC5(CCN(c6nccc(COc7ccc(C(C)(C)c8cc(Cl)cc(C#N)c8)cc7)n6)CC5)CC3)C4)c21 (stereo not drawn) [Compound 101 trifluoroacetate, 3-chloro-5-(2-(4-((2-(9-(7-((1-(2,6-dioxopiperidin-3-yl)-3-methyl-2-oxo-2,3-dihydro-1H-benzo[d]imidazol-4-yl)methyl)-7-azaspiro[3.5]nonan-2-yl)-3,9-diazaspiro[5.5]undecan-3-yl)pyrimidin-4-yl)methoxy)phenyl)propan-2-yl)benzonitrile]	699 nM
CCOc1c(Cl)cc(C(C)(C)c2ccc(OCc3ccnc(N4CCC(CN(C)C5CCN(c6ccc7c(c6)n(C)c(=O)n7C6CCC(=O)NC6=O)CC5)CC4)n3)cc2)cc1C#N (stereo not drawn) [Compound 102 trifluoroacetate, 3-chloro-5-(2-(4-((2-(4-(((1-(1-(2,6-dioxopiperidin-3-yl)-3-methyl-2-oxo-2,3-dihydro-1H-benzo[d]imidazol-5-yl)piperidin-4-yl)(methyl)amino)methyl)piperidin-1-yl)pyrimidin-4-yl)methoxy)phenyl)propan-2-yl)-2-ethoxybenzonitrile]	641 nM
Cn1c(=O)n(C2CCC(=O)NC2=O)c2ccc(N3CCC(C4CCN(CC5CN(c6nccc(COc7ccc(C(C)(C)c8cc(Cl)cc(C#N)c8)cc7)n6)C5)CC4)CC3)cc21 (stereo not drawn) [Compound 103 trifluoroacetate, 3-chloro-5-(2-(4-((2-(3-((1′-(1-(2,6-dioxopiperidin-3-yl)-3-methyl-2-oxo-2,3-dihydro-1H-benzo[d]imidazol-5-yl)-[4,4′-bipiperidin]-1-yl)methyl)azetidin-1-yl)pyrimidin-4-yl)methoxy)phenyl)propan-2-yl)benzonitrile]	823 nM
Cn1c(=O)n(C2CCC(=O)NC2=O)c2ccc(N3CCC(C4CCN(C5CCN(c6nccc(COc7ccc(C(C)(C)c8cc(Cl)cc(C#N)c8)cc7)n6)CC5)CC4)CC3)cc21 (stereo not drawn) [Compound 104 trifluoroacetate, 3-chloro-5-(2-(4-((2-(1″-(1-(2,6-dioxopiperidin-3-yl)-3-methyl-2-oxo-2,3-dihydro-1H-benzo[d]imidazol-5-yl)-[4,1′:4′,4″-terpiperidin]-1-yl)pyrimidin-4-yl)methoxy)phenyl)propan-2-yl)benzonitrile]	664 nM
Cn1c(=O)n(C2CCC(=O)NC2=O)c2ccc(C3CCN(CC4CCN(c5nccc(COc6ccc(C(C)(C)c7cc(Cl)cc(C#N)c7)cc6)n5)CC4)CC3)cc21 (stereo not drawn) [Compound 105 trifluoroacetate, 3-chloro-5-(2-(4-((2-(4-((4-(1-(2,6-dioxopiperidin-3-yl)-3-methyl-2-oxo-2,3-dihydro-1H-benzo[d]imidazol-5-yl)piperidin-1-yl)methyl)piperidin-1-yl)pyrimidin-4-yl)methoxy)phenyl)propan-2-yl)benzonitrile]	575 nM
Cn1c(=O)n(C2CCC(=O)NC2=O)c2ccc(C3CCN(C4CC5(CCN(c6nccc(COc7ccc(C(C)(C)c8cc(Cl)cc(C#N)c8)cc7)n6)CC5)C4)CC3)cc21 (stereo not drawn) [Compound 106 trifluoroacetate, 3-chloro-5-(2-(4-((2-(2-(4-(1-(2,6-dioxopiperidin-3-yl)-3-methyl-2-oxo-2,3-dihydro-1H-benzo[d]imidazol-5-yl)piperidin-1-yl)-7-azaspiro[3.5]nonan-7-yl)pyrimidin-4-yl)methoxy)phenyl)propan-2-yl)benzonitrile]	550 nM
CCOc1c(Cl)cc(C(C)(C)c2ccc(OCc3ccnc(N4CCC5(CC4)CC(N4CCC(c6ccc7c(c6)n(C)c(=O)n7C6CCC(=O)NC6=O)CC4)C5)n3)cc2)cc1C#N (stereo not drawn) [Compound 107 trifluoroacetate, 3-chloro-5-(2-(4-((2-(2-(4-(1-(2,6-dioxopiperidin-3-yl)-3-methyl-2-oxo-2,3-dihydro-1H-benzo[d]imidazol-5-yl)piperidin-1-yl)-7-azaspiro[3.5]nonan-7-yl)pyrimidin-4-yl)methoxy)phenyl)propan-2-yl)-2-ethoxybenzonitrile]	526 nM
